Assay results published in ChEMBL document CHEMBL4373684, “Synthesis of new lophine-carbohydrate hybrids as cholinesterase inhibitors: cytotoxicity evaluation and molecular modeling” (Medchemcomm, 2019).

Assays:
[1] = target: Cholinesterase (Mus musculus, UniProt Q03311)
Description: Inhibition of BuChE in Swiss mouse serum using butyrylthiocholine iodide as substrate incubated for 10 mins followed by substrate addition and measured after 10 mins

[2] = target: T1, Acetylcholinesterase (Mus musculus, UniProt P21836); test: Inhibition of AChE in Swiss mouse brain using acetylthiocholine iodide as substrate incubated for 10 mins followed by substrate addition and measured after 10 mins; type: tissue-based
T1 sequence (P21836 whole entry): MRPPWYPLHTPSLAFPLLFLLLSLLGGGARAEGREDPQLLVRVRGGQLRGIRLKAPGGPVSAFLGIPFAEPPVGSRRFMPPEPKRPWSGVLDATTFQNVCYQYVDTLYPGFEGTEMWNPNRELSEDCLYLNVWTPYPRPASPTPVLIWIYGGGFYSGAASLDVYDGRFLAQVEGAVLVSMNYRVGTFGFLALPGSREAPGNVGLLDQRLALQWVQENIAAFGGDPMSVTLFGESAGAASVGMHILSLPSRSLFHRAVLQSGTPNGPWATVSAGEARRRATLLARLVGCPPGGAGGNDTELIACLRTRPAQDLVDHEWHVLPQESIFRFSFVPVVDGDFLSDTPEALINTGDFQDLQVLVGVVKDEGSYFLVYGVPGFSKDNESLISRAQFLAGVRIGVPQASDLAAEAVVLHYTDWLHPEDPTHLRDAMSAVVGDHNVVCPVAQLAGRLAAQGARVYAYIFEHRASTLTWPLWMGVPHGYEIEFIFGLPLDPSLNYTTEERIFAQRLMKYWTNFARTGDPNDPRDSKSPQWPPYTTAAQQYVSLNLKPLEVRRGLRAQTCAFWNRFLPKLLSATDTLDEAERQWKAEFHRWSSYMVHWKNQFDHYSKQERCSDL

[3] = system: Vero; test: cells; details: Chlorocebus sabaeus, 24 h
Description: Cytotoxicity against monkey Vero cells assessed as reduction in cell viability incubated for 24 hrs by MTT assay

[4] = in vitro; details: PAMPA
Description: Fraction absorbed of the compound by PAMPA

[5] = in vitro; details: PAMPA; remark: listed apart in the source
Description: Effective permeability of compound incubated for 8 hrs by PAMPA

[6] = system: C6; test: cells; details: Rattus norvegicus, C6, 24 h
Description: Cytotoxicity against rat C6 cells assessed as reduction in cell viability incubated for 24 hrs by MTT assay

[7] = system: HepG2; test: cells; details: Homo sapiens, HepG2, 24 h
Description: Cytotoxicity against human HepG2 cells assessed as reduction in cell viability incubated for 24 hrs by MTT assay

[8] = Selectivity index, ratio of IC50 for monkey Vero cells to IC50 for inhibition of BuChE in Swiss mouse serum
[9] = Selectivity index, ratio of IC50 for rat C6 cells to IC50 for inhibition of BuChE in Swiss mouse serum
[10] = Selectivity index, ratio of IC50 for human HepG2 cells to IC50 for inhibition of BuChE in Swiss mouse serum
[11] = Selectivity index, ratio of IC50 for monkey Vero cells to IC50 for inhibition of AChE in Swiss mouse brain
[12] = Selectivity index, ratio of IC50 for human HepG2 cells to IC50 for inhibition of AChE in Swiss mouse brain
[13] = Selectivity index, ratio of IC50 for rat C6 cells to IC50 for inhibition of AChE in Swiss mouse brain

Sequence of Cholinesterase (Q03311 whole entry): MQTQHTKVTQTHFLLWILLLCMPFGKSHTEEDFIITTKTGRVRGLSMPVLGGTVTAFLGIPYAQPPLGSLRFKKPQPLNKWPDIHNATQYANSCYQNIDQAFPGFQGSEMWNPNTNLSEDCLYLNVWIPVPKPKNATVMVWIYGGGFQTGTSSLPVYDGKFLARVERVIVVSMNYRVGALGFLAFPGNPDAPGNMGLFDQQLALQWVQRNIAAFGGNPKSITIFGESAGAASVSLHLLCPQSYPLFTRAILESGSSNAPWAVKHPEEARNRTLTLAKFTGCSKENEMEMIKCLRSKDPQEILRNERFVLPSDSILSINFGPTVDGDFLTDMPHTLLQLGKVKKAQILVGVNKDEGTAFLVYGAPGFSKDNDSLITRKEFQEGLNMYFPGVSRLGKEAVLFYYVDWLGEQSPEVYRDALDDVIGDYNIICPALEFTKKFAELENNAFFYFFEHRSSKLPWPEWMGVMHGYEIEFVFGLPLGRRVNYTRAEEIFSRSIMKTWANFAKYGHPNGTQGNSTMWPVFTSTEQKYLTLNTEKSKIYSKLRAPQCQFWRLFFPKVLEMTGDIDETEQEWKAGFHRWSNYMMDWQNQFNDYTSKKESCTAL

**Q.** Which IC50 [1] does the source give for `c1ccc(-c2nc(-c3ccccc3)c(-c3ccccc3)[nH]2)cc1` here?
**A.** > 10 µM

**Q.** And the IC50 [2]?
**A.** > 10 µM

**Q.** With `CC1(C)O[C@H]2O[C@H](CNCCCCCCCn3c(-c4ccccc4)nc(-c4ccccc4)c3-c3ccccc3)[C@H](O)[C@H]2O1` as the compound, how does the IC50 [1] read?
**A.** 0.4 µM

**Q.** And the IC50 [2]?
**A.** > 10 µM

**Q.** With `CC1(C)O[C@H]2O[C@H](CNCCCCCCCCn3c(-c4ccccc4)nc(-c4ccccc4)c3-c3ccccc3)[C@H](O)[C@H]2O1` as the compound, how does the IC50 [1] read?
**A.** 1.3 µM

**Q.** What about the IC50 [2] of the same compound?
**A.** > 10 µM

**Q.** Which IC50 [1] does the source give for `CC1(C)O[C@H]2O[C@H](CNCCCCCCn3c(-c4ccccc4)nc(-c4ccccc4)c3-c3ccccc3)[C@H](O)[C@H]2O1` here?
**A.** 0.71 µM

**Q.** What about the IC50 [2] of the same compound?
**A.** > 10 µM

**Q.** With `CC1(C)O[C@H]2O[C@H](CNCCCCn3c(-c4ccccc4)nc(-c4ccccc4)c3-c3ccccc3)[C@H](O)[C@H]2O1` as the compound, how does the IC50 [1] read?
**A.** 0.3 µM

**Q.** And the IC50 [2]?
**A.** > 10 µM

**Q.** What does the source list for `CC1(C)O[C@H]2[C@@H](O1)[C@@H](CNCCCCCCn1c(-c3ccccc3)nc(-c3ccccc3)c1-c1ccccc1)O[C@@H]1OC(C)(C)O[C@@H]12`?
**A.** IC50 [1]: 0.17 µM; IC50 [3]: > 250 µM; Fa [4]: 5.9%; Papp at 8 h [5]: 0.54 ×10⁻⁶ cm/s; IC50 [6]: > 250 µM; IC50 [2]: > 10 µM; IC50 [7]: > 250 µM

**Q.** Which IC50 [1] does the source give for `CC1(C)O[C@H]2O[C@H](CNCCCCCn3c(-c4ccccc4)nc(-c4ccccc4)c3-c3ccccc3)[C@H](O)[C@H]2O1` here?
**A.** 0.28 µM

**Q.** And the IC50 [3]?
**A.** 115 µM

**Q.** What about the IC50 [6] of the same compound?
**A.** > 250 µM

**Q.** What about the IC50 [2] of the same compound?
**A.** > 10 µM

**Q.** What about the IC50 [7] of the same compound?
**A.** 116 µM

**Q.** Which “Ratio IC50” value [8] does the source give for `CC1(C)O[C@H]2[C@@H](O1)[C@@H](CNCCCCCCCn1c(-c3ccccc3)nc(-c3ccccc3)c1-c1ccccc1)O[C@@H]1OC(C)(C)O[C@@H]12` here?
**A.** 1400

**Q.** What about the “Ratio IC50” value [9] of the same compound?
**A.** 1400

**Q.** What about the IC50 [1] of the same compound?
**A.** 0.62 µM

**Q.** And the “Ratio IC50” value [10]?
**A.** 1400

**Q.** What about the IC50 [2] of the same compound?
**A.** > 10 µM

**Q.** With `CO[C@@H]1O[C@H](CNCCCCCCCn2c(-c3ccccc3)nc(-c3ccccc3)c2-c2ccccc2)[C@H]2OC(C)(C)O[C@@H]12` as the compound, how does the “Ratio IC50” value [8] read?
**A.** 500

**Q.** And the “Ratio IC50” value [9]?
**A.** 500

**Q.** And the “Ratio IC50” value [11]?
**A.** 90

**Q.** And the IC50 [1]?
**A.** 0.5 µM

**Q.** What about the IC50 [3] of the same compound?
**A.** > 250 µM

**Q.** What about the Fa [4] of the same compound?
**A.** 20.4%

**Q.** And the “Ratio IC50” value [10]?
**A.** 500

**Q.** What about the Papp at 8 h [5] of the same compound?
**A.** 2.28 ×10⁻⁶ cm/s

**Q.** And the IC50 [6]?
**A.** > 250 µM

**Q.** And the “Ratio IC50” value [12]?
**A.** 90

**Q.** And the “Ratio IC50” value [13]?
**A.** 90

**Q.** What about the IC50 [2] of the same compound?
**A.** 2.75 µM

**Q.** What about the IC50 [7] of the same compound?
**A.** > 250 µM

**Q.** With `CO[C@@H]1O[C@H](CNCCCCCCn2c(-c3ccccc3)nc(-c3ccccc3)c2-c2ccccc2)[C@H]2OC(C)(C)O[C@@H]12` as the compound, how does the IC50 [1] read?
**A.** 0.4 µM

**Q.** What about the IC50 [2] of the same compound?
**A.** > 10 µM

**Q.** Which Fa [4] does the source give for `CC(C)NCC(O)COc1ccc(CC(N)=O)cc1` (centres undefined) [ATENOLOL] here?
**A.** 100%

**Q.** Which Fa [4] does the source give for `CO/N=C(\C(=O)N[C@@H]1C(=O)N2C(C(=O)O)=C(CSc3nc(=O)c(=O)[nH]n3C)CS[C@H]12)c1csc(N)n1` [CEFTRIAXONE] here?
**A.** 99.2%

**Q.** What about the Papp at 8 h [5] of the same compound?
**A.** 0.38 ×10⁻⁶ cm/s

**Q.** With `O=c1ccc2ccccc2o1` [COUMARIN] as the compound, how does the Fa [4] read?
**A.** 87.9%

**Q.** What about the Papp at 8 h [5] of the same compound?
**A.** 26.2 ×10⁻⁶ cm/s

**Q.** With `CCn1cc(C(=O)O)c(=O)c2cc(F)c(N3CCNCC3)cc21` [NORFLOXACIN] as the compound, how does the Fa [4] read?
**A.** 23.5%

**Q.** For `CNC(=C[N+](=O)[O-])NCCSCc1ccc(CN(C)C)o1` [RANITIDINE], which Fa [4] is on record?
**A.** 87.3%
